Four molecules from paper PMC8390788 (Bioscience Reports, 2021) can be followed below.

One series relates to BRIN-BD11 cells. The series is described as follows: In vitro insulin secretion from BRIN-BD11 cells (radioimmunoassay). Format: cell-based. Conditions: 20 min; for Effect on glucose-stimulated insulin secretion: 16.7 mM glucose, n=8 (Figure 1B); for Effect on GIP-induced insulin secretion: with 10^−7 M GIP, 5.6 mM glucose, n=8 (Figure 1C); for Effect on GLP-1 evoked insulin release: with 10^−7 M GLP-1, 5.6 mM glucose, n=8 (Figure 1D). How it is done:
The in vitro insulin secretory activity of test peptides was examined in BRIN-BD11 cells, cultured and maintained as previously described. For experimentation, BRIN-BD11 cells were seeded in 24-well plates at a cell density of 150000 cells/well, and allowed to attach overnight at 37°C. Following pre-incubation with Krebs–Ringer bicarbonate buffer (KRBB) (pH 7.4) supplemented with 0.5% (w/v) BSA and 1.1 mM glucose (40 min; 37°C), cells were then incubated with test peptides alone (10^−6–10^−12 M), or in combination with either GIP or GLP-1 (10^−7 M), at 5.6 or 16.7 mM glucose, as appropriate for 20 min. […] Aliquots of assay buffer (200 μl) were collected and stored at −20°C prior to assessment of insulin concentrations by an in-house radioimmunoassay. To confirm insulin secretory activity of Ac-NT/XN-8-Gln, pancreatic islets were isolated from lean C57BL/6 mice by collagenase digestion, as described previously and insulin secretion determined as outlined above (16.7 mM glucose), but over a 60-min test incubation period.
Figure 1 Acute effects of acetyl-neurotensin(8-13), xenin-8-Gln, Ac-NT/XN-8-Gln alone and in combination with GIP or GLP-1, on insulin release from BRIN-BD11 cells and isolated mouse islets BRIN-BD11 cells were incubated (20 min) with a range of concentrations (10^−12 to 10^−6 M) of acetyl-neurotensin(8-13), xenin-8-Gln or Ac-NT/XN-8-Gln alone (A,B) or in combination with GIP (C) or GLP-1 (D) in the presence of (A,C,D) 5.6 or (B) 16.7 mM glucose. (E) Murine islets were incubated (60 min) with Ac-NT/XN-8-Gln (10^−8 and 10^−6 M) in the presence 16.7 mM glucose. (A–E) Insulin release was measured using radioimmunoassay. Values represent means ± SEM (n=8 for (A–D) and n=5 for (E)). *P<0.05 and ***P<0.001 compared with respective glucose controls. ^∆P<0.05, ^∆∆P<0.01 and ^∆∆∆P<0.001 compared with respective 10^−7 M GIP or GLP-1 control.

The next series deals with BRIN-BD11 β-cells. Description: β-cell proliferation, Ki-67 immunostaining. Format: cell-based. Conditions: 18 h, 10^−8 and 10^−6 M, n=3–4, vs media control (Figure 2A). How it is done: BRIN-BD11 β-cells were used to investigate effects of test peptides (10^−8 and 10^−6 M) on β-cell proliferation and protection against apoptosis. GLP-1 was employed as a positive control for all studies. Ki-67 immunostaining was used to assess effects on proliferation. Briefly, cells were seeded on to coverslips (40000 cells per coverslip) and cultured overnight (18 h; 37°C), in the presence of test peptides (10^−8 and 10^−6 M). Cells were then washed with PBS, and fixed using 4% paraformaldehyde. Following antigen retrieval with citrate buffer (90°C for 20 min), tissues were blocked using 1.1% BSA for 30 min. Cells were then incubated with Ki-67 primary antibody (1:500; Abcam, ab15580), followed by Alexa Fluor® 488 secondary antibody (1:400, Invitrogen, A-11008). Coverslips were washed with PBS, mounted on slides for viewing using a fluorescent microscope (Olympus System Microscope) and photographed by DP70 camera adapter system. Proliferation frequency was expressed as percentage of total cells analysed. For analysis of the ability of test peptides (10^−8 and 10^−6 M) to protect against apoptosis, cells were seeded as above, but apoptosis evoked through activation of caspase 3 and 7 activity by a luminogenic, tetrapeptide sequence DEVD Caspase-Glo® 3/7 substrate. Caspase induced cleavage of the substrate was then assessed by an ApoLive-Glow™ Multiplex assay kit, according to the protocol provided by the manufacturer (Promega, Wisconsin, U.S.A.).
(A) Proliferation was measured using Ki-67 immunocytochemistry. (B) Caspase-3/7 activation was detected by luminescence.

Series [1] is described as follows: Enzymatic stability in murine plasma. Type of series: in vitro ADME. To be noted: 37°C, HPLC separation, MS analysis, percentage from peak areas; for remaining at 2 h / remaining at 4 h / remaining at 8 h: mouse; for remaining at 2 h: 2-h incubation, read-out: Percentage intact peptide remaining (%) 2 h; for remaining at 4 h / Percentage intact peptide remaining (%) 4 h: 4-h incubation; for remaining at 4 h: read-out: Percentage intact peptide remaining (%) 4 h; for remaining at 8 h / Percentage intact peptide remaining (%) 8 h: 8-h incubation; for remaining at 8 h: read-out: Percentage intact peptide remaining (%) 8 h. As to the method:
When incubated together with murine plasma, Ac-NT/XN-8-Gln remained 100% intact up to and including 4 h, and over 90% peptide intact over an extended 8-h incubation period (Table 1).

In the next series the test system is isolated mouse islets. Description: Insulin secretion from isolated mouse islets. Type of series: cell-based, C57BL/6 mice. To be noted: 16.7 mM glucose, 60 min, peptide 10^−8 and 10^−6 M, n=5 (Figure 1E). How it is done:
The in vitro insulin secretory activity of test peptides was examined in BRIN-BD11 cells, cultured and maintained as previously described. For experimentation, BRIN-BD11 cells were seeded in 24-well plates at a cell density of 150000 cells/well, and allowed to attach overnight at 37°C. Following pre-incubation with Krebs–Ringer bicarbonate buffer (KRBB) (pH 7.4) supplemented with 0.5% (w/v) BSA and 1.1 mM glucose (40 min; 37°C), cells were then incubated with test peptides alone (10^−6–10^−12 M), or in combination with either GIP or GLP-1 (10^−7 M), at 5.6 or 16.7 mM glucose, as appropriate for 20 min. […] To confirm insulin secretory activity of Ac-NT/XN-8-Gln, pancreatic islets were isolated from lean C57BL/6 mice by collagenase digestion, as described previously and insulin secretion determined as outlined above (16.7 mM glucose), but over a 60-min test incubation period.
Figure 1 Acute effects of acetyl-neurotensin(8-13), xenin-8-Gln, Ac-NT/XN-8-Gln alone and in combination with GIP or GLP-1, on insulin release from BRIN-BD11 cells and isolated mouse islets BRIN-BD11 cells were incubated (20 min) with a range of concentrations (10^−12 to 10^−6 M) of acetyl-neurotensin(8-13), xenin-8-Gln or Ac-NT/XN-8-Gln alone (A,B) or in combination with GIP (C) or GLP-1 (D) in the presence of (A,C,D) 5.6 or (B) 16.7 mM glucose. […] (A–E) Insulin release was measured using radioimmunoassay. […]

“Also recorded” adds a separate entry of the source. No end group written: not given here.

On to `CC[C@H](C)[C@H](NC(=O)[C@H](Cc1ccc(O)cc1)NC(=O)[C@@H]1CCCN1C(=O)[C@H](CCCNC(=N)N)NC(=O)[C@H](CCCNC(=N)N)NC(C)=O)C(=O)N[C@@H](CC(C)C)C(=O)O` [Acetyl-neurotensin(8-13)], for which, in the series with BRIN-BD11 cells, the “Effect on glucose-stimulated insulin secretion” value was “inhibited”, the “Effect on GIP-induced insulin secretion” value is “no effect” and the “Effect on GLP-1 evoked insulin release” value is recorded as “inhibit”. Further, the “β-cell proliferation (Ki-67)” value in the series on BRIN-BD11 β-cells was “augmented”. In series [1], the amount remaining at 2 h turned out to be 98.2%, the fraction remaining at 4 h is 94.4% and the amount remaining at 8 h turned out to be 89.6%.
On to Ac-RRPYILHPQQPWIL [Ac-NT/XN-8-Gln], for which, in the series on BRIN-BD11 cells, the “Effect on GIP-induced insulin secretion” value is “augmented; also recorded: similar, but more prominent, bioactivity profile” and the “Effect on GLP-1 evoked insulin release” value was “perturb”. For the same molecule, the “β-cell proliferation (Ki-67)” value with BRIN-BD11 β-cells was “augmented”. The “Insulin release from isolated mouse islets” value with isolated mouse islets was “Prominent (P<0.01) insulinotropic actions”. Besides, in series [1], the “Percentage intact peptide remaining (%) 4 h” value turned out to be 100%, the “Percentage intact peptide remaining (%) 8 h” value is “over 90%”, the share remaining at 2 h is 100% and the fraction remaining at 8 h was determined as 91.7%.
For the molecule HPQQPWIL [Xenin-8-Gln], in the series with BRIN-BD11 cells, the “Effect on glucose-stimulated insulin secretion” value is reported as “retained significant insulinotropic actions”, the “Effect on GIP-induced insulin secretion” value was “augmented” and the “Effect on GLP-1 evoked insulin release” value is listed as “no impact”. The “β-cell proliferation (Ki-67)” value in the series on BRIN-BD11 β-cells is “devoid of benefits”. In addition, in series [1], the “Percentage intact peptide remaining (%) 8 h” value is on record as 94.1%, the fraction remaining at 2 h is 100% and the fraction remaining at 4 h amounted to 98.3%.
Regarding glucagon-like peptide-1 [Native GLP-1], the “Percentage intact peptide remaining (%) 4 h” value in series [1] is listed as “fully degraded”.
